Experimental data from patent US20230023009A1, “HETEROCYCLIC COMPOUNDS AND METHODS OF USE THEREOF” (SPARCBIO LLC, priority 2020, published 2023).
pIC50: −log10 of the molar value.

Columns and labels:
Assay in all cases: Cell proliferation assay panel (Cell Titer-Glo, 72 hr)
Format in all cases: cell-based
NCI-H358 = details: Homo sapiens
Procedure: (§1) Potency of compounds was determined in cell proliferation assays in a panel of cancer cell lines. Cells were seeded in 384-well plates (Corning, Cat. #3765) at specified densities in 40 μL of culture medium and incubated overnight at 37° C. in a 5% CO2 incubator (culture conditions). With a robotic dispenser, serially diluted test compounds were added in a volume of 20 nL DMSO to wells in the culture plate to achieve the final desired concentrations of test compounds, and the cells were further incubated in culture conditions for 72 hr. The assay was terminated by addition of 25 μL of Cell Titer-Glo reagent (Promega, Madison, Wis.) to each well. Contents were mixed, the plate was incubated for 10 min at room temperature and luminescence was measured. The IC50 value of each test compound was calculated with XLFit curve fitting software. Results are shown in Table 4. ‘+++’ indicates IC50 values≤300 nM, ‘++’ indicates IC50 values between 300 nM-3 μM, and ‘+’ indicates IC50 values≥3 μM.

SW1573 = details: Homo sapiens
Procedure: as §1

KYSE-410 = details: Homo sapiens
Procedure: as §1

NCI-H2030 = details: Homo sapiens
Procedure: as §1

NCI-H2122 = details: Homo sapiens
Procedure: as §1

A549 = details: Homo sapiens
Procedure: as §1

MIA PaCa-2 = details: Homo sapiens, MIA PaCa-2, 72 h
Procedure: as §1

NCI-H1373 = details: Homo sapiens
Procedure: as §1

C=C(F)C(=O)N1CCN(c2nc(OC[C@@H]3CCCN3C)nc3c2CO[C@@H](c2cccc4cccc(Cl)c24)C3)C[C@@H]1CC#N (single isomer, unassigned) [43 (Isomer B)]
pIC50 (NCI-H358): ≥ 6.52 | pIC50 (SW1573): ≤ 5.52 | pIC50 (KYSE-410): ≤ 5.52 | pIC50 (NCI-H2030): 5.52 to 6.52 | pIC50 (NCI-H2122): 5.52 to 6.52 | pIC50 (A549): ≤ 5.52 | pIC50 (MIA PaCa-2): ≥ 6.52 | pIC50 (NCI-H1373): 5.52 to 6.52
